For series [1] the following is noted: 45 minutes after ingestion of 200 mg potassium nitrate solution; fasting mean 114 μM.
For series [2], the system named is caries-producing organisms in dental plaque; C albicans. Conditions: toothpaste, mouthwash or other orally acceptable vehicle.
Series [3] deals with C albicans. The procedure: With reference to FIG. 1 a single colony of C albicans was used to inoculate an overnight culture in Sabouraud's broth. 10 μl of this broth was added to 940 μl of a citrate/phosphate buffered Sabouraud's broth to which was added sodium nitrite (50 μl; final concentration 250 μM) or distilled water as a control. After one hour incubation at 37° C., 10 μl was removed and cultured in 190 μl standard Sabourauds broth with continual agitation (Gallenkamp orbital incubator) in a 96-well microtitre plate at 37° C. Growth was monitored by measurement of optical density at 570 nm at regular time intervals. The results are a mean of 16 separate experiments.
The open bars show the growth of C albicans measured by the optical density method following exposure to acid alone for 1 hour, while the closed bars show growth following exposure to acid and 250 μM sodium nitrite.

Series [4] deals with E coli (strain NCTC 10418). From the text:
The results shown in FIGS. 2A and 2B are a mean of 20 experiments.
The methods are those as for FIG. 2.

Molecules are shown by their SMILES. Like-named read-outs stand apart in the source and are kept apart here.

Results on 3 compounds are retold here after US6709681B2, “Acidified nitrite as an antimicrobial agent” (Aberdeen University, priority 1995, dated 2004).

Regarding `O=[N+]([O-])[O-].[K+]` [potassium nitrate], the “salivary nitrite (mean)” value in series [1] is 1030 µM.
On to `O=[N+]([O-])O` [nitrate], for which the “reduction of caries-producing organisms in dental plaque / treatment or prevention of infection with C albicans” value in series [2] was “effective”.
Turning to `O=NO` [sodium nitrite], the “killing of C albicans” value in series [3] (5 nN nitrite, up to pH5) is “killed C albicans”. The “survival of C albicans (growth by optical density)” value in series [3] (250 μgM sodium nitrite, one hour, pH reduced to below 4) was “incrementally killed C albicans”. Besides, in series [3] (pH 1, all concentrations above 250 μM (data not shown)), the “elimination of C albicans” value was “effective in eliminating C albicans”. Besides, the “effect on E coli” value in series [4] (250 μM nitrite, above pH4) is “no effect”. Also, in series [4] (250 μM nitrite, pH 2, 3 and 4), the “growth of E coli compared with control (acid alone)” value is “significantly (p<0.05) impaired”. In addition, in series [4] (250 μM nitrite, pH2, one hour), the “survival of E coli” value is listed as “eliminates E coli”. For the same compound, the “viability of E coli” value in series [4] (250 μM nitrite, pH3 and pH4) was “significantly reduces the viability”. In addition, the “toxic effect on E coli” value in series [4] (pH3, 10 μM) was “discernable effect”; in series [4] (pH3, 1 mM), “killed E coli completely”. In addition, the “reduction of caries-producing organisms in dental plaque / treatment or prevention of infection with C albicans” value in series [2] was “effective”.
